106 substances from US20230357447A1, “TUMOR ACTIVATED MULTISPECIFIC ANTIBODIES FOR TARGETING CD28 AND PD-L1 AND METHODS OF USE THEREOF” (Janux Therapeutics, Inc., priority 2022, published 2023) can be followed below.

The subject of this assay is anti-CD28 scFv. As to the kind of experiment: Phage binding ELISA (panning) of clonal phage on anti-CD28 scFv, with or without CD28 soluble protein. The following applies: clonal phage supernatant; background signal. As to the method: Clonal phage were harvested as crude supernatants and screened via standard enzyme linked immunosorbent assays (ELISAs). […] Prior to the addition of clonal phage, wells were incubated with blocking buffer and CD28 soluble protein or blocking buffer alone. Without washing or aspirating, clonal phage supernatants were then added to the wells and incubated for a short time. Wells were then washed followed by detection of bound phage using a horse radish peroxidase conjugated anti-M13 antibody. Clonal phage of interest were then sent for sequence analysis.
A general note: An ELISA detects its analyte on a solid surface through an enzyme-linked reagent.

As for Phage-200 (MFWCPFDMWHFCFN), the “Phage binding ELISA Backgroud signal” value stood at 0.150. Take Phage-201 (MDWCPRDMWDQCFD): the “Phage binding ELISA Backgroud signal” value worked out at 0.072.

Take Phage-202 (MFWCPMDMWDQCFN): the “Phage binding ELISA Backgroud signal” value was 0.091. Phage-203 (MSWCPRDMWFYCYA): the “Phage binding ELISA Backgroud signal” value was 0.065. The value for Phage-204 (MDWCPRHMWNVCFS) was 0.067. As to Phage-205 (MDWCPTDMWHHCFL), the “Phage binding ELISA Backgroud signal” value came to 0.061. Take Phage-206 (IHWCPINMWDKCYN): the “Phage binding ELISA Backgroud signal” value came to 0.060. Take Phage-207 (MDWCPRAMWHECFY): the “Phage binding ELISA Backgroud signal” value came out at 0.069. Phage-208 (MDWCPTDMWIVCFA): the “Phage binding ELISA Backgroud signal” value worked out at 0.363. The value for Phage-209 (IDWCPQDMWFYCFN) was 0.069. In the case of Phage-210 (MDWCPRDMWFECFA) it was 0.076. As to Phage-211 (MDWCPRNMWTVCFL), the “Phage binding ELISA Backgroud signal” value was 0.060. Phage-212 (MDWCPRAMWDKCFF): the “Phage binding ELISA Backgroud signal” value is 0.073. In the case of Phage-213 (MNWCPSYMWDQCFA) it was 0.125; in that of Phage-214 (MDWCPTYMWSECFN), 0.086.

On to Phage-215 (MDWCPRYMWNECFN), for which the “Phage binding ELISA Backgroud signal” value is recorded as 0.064. As to Phage-216 (MDWCPMNMWYQCFN), the “Phage binding ELISA Backgroud signal” value is given as 0.110. As to Phage-217 (MDWCPWDMWDKCFN), the “Phage binding ELISA Backgroud signal” value came out at 0.101. Take Phage-218 (TFGCPTTMWNRCFA): the “Phage binding ELISA Backgroud signal” value was determined as 0.117. Phage-219 (NYWCPSSMWNRCLH): the “Phage binding ELISA Backgroud signal” value was 0.295. As to Phage-220 (FDFCPTTMWTYCQH), the “Phage binding ELISA Backgroud signal” value amounted to 0.084. As for Phage-221 (TTWCPTSMWLHCFD), the “Phage binding ELISA Backgroud signal” value worked out at 0.096. Phage-222 (MDWCPRDQWHNCFN): the “Phage binding ELISA Backgroud signal” value is given as 0.075. As to Phage-223 (MDWCPRDRWVDCFF), the “Phage binding ELISA Backgroud signal” value is 0.066. Regarding Phage-224 (MDWCPKDRWNDCYF), the “Phage binding ELISA Backgroud signal” value came to 0.078. For the substance Phage-225 (MDWCPRDRWADCFF), the “Phage binding ELISA Backgroud signal” value is listed as 0.069.

Turning to Phage-226 (MDWCPRDRWIDCFN), the “Phage binding ELISA Backgroud signal” value turned out to be 0.218. As to Phage-228 (ITWCHVISGLECWN), the “Phage binding ELISA Backgroud signal” value amounted to 0.076.

Consider Phage-229 (VPWCQIISGLECLT), for which the “Phage binding ELISA Backgroud signal” value amounted to 0.076. The value for Phage-230 (APWCQIISGLECLT) was 0.080; that for Phage-231 (VPWCLIISGLDCLN) was 0.455; that for Phage-232 (MDWCARFVGYGCLD) was 0.948. With Phage-233 (MTWCPTSFWNRCLD), the “Phage binding ELISA Backgroud signal” value came to 0.142. Regarding Phage-234 (MDWCPRALWFECFF), the “Phage binding ELISA Backgroud signal” value is listed as 0.111. On to Phage-235 (MDWCPRYLWHECFS), for which the “Phage binding ELISA Backgroud signal” value came to 0.063. The value for Phage-236 (MDWCPRDLWNLCFF) was 0.084; that for Phage-237 (MDWCPSYLWHECFF) was 0.067; that for Phage-238 (MDWCPPYLWSECFA) was 0.539. With Phage-239 (MDWCPRYLWHVCFN), the “Phage binding ELISA Backgroud signal” value turned out to be 0.187. Phage-240 (MDWCPRTLWHVCFN): the “Phage binding ELISA Backgroud signal” value is 0.317.

On to Phage-241 (MDWCPRHLWHECYS), for which the “Phage binding ELISA Backgroud signal” value was determined as 0.066. As to Phage-242 (MDWCPKHLWTECFA), the “Phage binding ELISA Backgroud signal” value came to 0.098. For Phage-243 (MDWCPRHLWYECFN), the “Phage binding ELISA Backgroud signal” value is recorded as 0.063. Take Phage-244 (MDWCPRYLWHECFD): the “Phage binding ELISA Backgroud signal” value worked out at 0.071. With Phage-245 (MDWCPRNLWHLCFA), the “Phage binding ELISA Backgroud signal” value amounted to 0.082.

As for Phage-246 (MDWCPKHLWNKCFN), the “Phage binding ELISA Backgroud signal” value is 0.075.

Take Phage-247 (MDWCPRFMWAECFN): the “Phage binding ELISA Backgroud signal” value is 0.073. Consider Phage-248 (MDWCPRNMWHHCFD), for which the “Phage binding ELISA Backgroud signal” value is 0.205.

For the substance Phage-249 (MDWCPSDMWAHCYN), the “Phage binding ELISA Backgroud signal” value was 0.191.

As for Phage-250 (MDWCPKVMWHYCFA), the “Phage binding ELISA Backgroud signal” value is 0.136. For Phage-251 (MDWCPRFMWSECFS), the “Phage binding ELISA Backgroud signal” value came to 0.092. As for Phage-252 (MDWCPRHMWINCFA), the “Phage binding ELISA Backgroud signal” value was found to be 0.091. On to Phage-253 (MVGCATSMWNRCLT), for which the “Phage binding ELISA Backgroud signal” value stood at 0.256. As to Phage-254 (MDWCPRYLWSECFA), the “Phage binding ELISA Backgroud signal” value amounted to 0.078. With Phage-255 (MDWCPRHLWSVCFN), the “Phage binding ELISA Backgroud signal” value stood at 0.064. In the case of Phage-256 (MDWCPFDLWHVCYN) it was 0.089. For Phage-257 (MDWCPRFLWHECFN), the “Phage binding ELISA Backgroud signal” value came to 0.079. For the substance Phage-258 (MDWCPRSLWHVCFN), the “Phage binding ELISA Backgroud signal” value was 0.098.

As for Phage-259 (MDWCPRNLWHACFN), the “Phage binding ELISA Backgroud signal” value was determined as 0.071. On to Phage-260 (MDWCPVFMWNECFN), for which the “Phage binding ELISA Backgroud signal” value was determined as 0.079. The value for Phage-261 (MDWCPMFMWHECFN) was 0.102.

Consider Phage-262 (MYWCATSMWNRCFV), for which the “Phage binding ELISA Backgroud signal” value came to 0.248.

As for Phage-263 (MDWCPRHMWHECFA), the “Phage binding ELISA Backgroud signal” value was determined as 0.074. Take Phage-264 (MDWCPRHLWHVCFN): the “Phage binding ELISA Backgroud signal” value is on record as 0.070.

As to Phage-265 (MDWCPRFMWDLCFA), the “Phage binding ELISA Backgroud signal” value is reported as 0.270. On to Phage-266 (VTSCPTTMWNRCFS), for which the “Phage binding ELISA Backgroud signal” value is 0.396. In the case of Phage-267 (MTLCLSVDLVHCWY), the “Phage binding ELISA Backgroud signal” value is given as 0.114. Regarding Phage-269 (DSFCTWSAWQECGR), the “Phage binding ELISA Backgroud signal” value is on record as 0.072. Turning to Phage-270 (MDWCPRDFWAFCFF), the “Phage binding ELISA Backgroud signal” value is on record as 0.118. On to Phage-271 (MDWCPTSFWNRCFH), for which the “Phage binding ELISA Backgroud signal” value is reported as 0.102. With Phage-272 (MVWCMSVGWAVCLN), the “Phage binding ELISA Backgroud signal” value was found to be 0.289. The value for Phage-274 (WVSCLRHHWLECFH) was 0.781; that for Phage-275 (MDWCPRDHWVDCYS) was 0.172. For Phage-276 (IDWCPKIHWDLCYF), the “Phage binding ELISA Backgroud signal” value is 0.072. On to Phage-277 (MDWCPRSHWSECFS), for which the “Phage binding ELISA Backgroud signal” value was 0.080.

Regarding Phage-279 (MDWCPRYLWAECFN), the “Phage binding ELISA Backgroud signal” value came out at 0.068.

Regarding Phage-280 (MDWCPRYLWDYCFA), the “Phage binding ELISA Backgroud signal” value is 0.073. Consider Phage-281 (MDWCPRSLWFLCFN), for which the “Phage binding ELISA Backgroud signal” value came to 1.110. In the case of Phage-282 (MDWCPRDLWFACFA) it was 0.060.

Phage-283 (MDWCPRHLWNECFN): the “Phage binding ELISA Backgroud signal” value was 0.079.

As to Phage-284 (MDWCPRFLWHVCFS), the “Phage binding ELISA Backgroud signal” value was found to be 2.091. For the substance Phage-285 (MDWCPRDLWAMCFA), the “Phage binding ELISA Backgroud signal” value was determined as 0.071.

For Phage-286 (MERCPRYLWHMCYS), the “Phage binding ELISA Backgroud signal” value is recorded as 0.164. In the case of Phage-288 (MDWCPIALWDFCFA), the “Phage binding ELISA Backgroud signal” value turned out to be 0.073. Take Phage-290 (MDWCPRDLWSVCFS): the “Phage binding ELISA Backgroud signal” value was 0.090.

For the substance Phage-291 (MDWCPRYLWHVCFY), the “Phage binding ELISA Backgroud signal” value is on record as 0.227.

Take Phage-292 (MDWCPRALWDHCFF): the “Phage binding ELISA Backgroud signal” value was found to be 0.081.

Consider Phage-293 (MDWCPRHLWFECFN), for which the “Phage binding ELISA Backgroud signal” value was found to be 0.064. With Phage-294 (MDWCPRSLWDYCFA), the “Phage binding ELISA Backgroud signal” value is 0.115. With Phage-299 (MDWCPIYLWAECFN), the “Phage binding ELISA Backgroud signal” value is 0.078. With Phage-300 (MDWCPRHLWFECFF), the “Phage binding ELISA Backgroud signal” value is 0.178. As for Phage-301 (MDWCPRYLWHECFF), the “Phage binding ELISA Backgroud signal” value was 0.082. Turning to Phage-302 (MDWCPRYLWHVCFD), the “Phage binding ELISA Backgroud signal” value is reported as 0.068. In the case of Phage-303 (MDWCPRYLWTECFS) it was 0.074. Regarding Phage-304 (MDWCPKFLWDECFA), the “Phage binding ELISA Backgroud signal” value came to 0.311. On to Phage-305 (MDWCPRDLWTECFS), for which the “Phage binding ELISA Backgroud signal” value was found to be 0.080. Take Phage-306 (MDWCPRHLWNECFA): the “Phage binding ELISA Backgroud signal” value worked out at 0.068. For the substance Phage-307 (MDWCPRYLWPVCFH), the “Phage binding ELISA Backgroud signal” value was 0.179.

In the case of Phage-308 (MDWCPKSLWAECFN), the “Phage binding ELISA Backgroud signal” value is listed as 0.395. With Phage-309 (MDWCPMFLWHECFN), the “Phage binding ELISA Backgroud signal” value worked out at 0.170. In the case of Phage-310 (MDWCPRDLWDECFN) it was 0.066; in that of Phage-311 (MDWCPRDLWYQCFN), 0.069.

On to Phage-313 (MDWCPRSLWNYCFN), for which the “Phage binding ELISA Backgroud signal” value came out at 0.076. The value for Phage-314 (MDWCPIHLWNECFN) was 0.074; that for Phage-315 (MDWCPTYLWHVCFS) was 0.089; that for Phage-316 (MDWCPRSLWNYCFA) was 0.067.
